Reference: patent publication US11214556B1, “Method of treating colorectal cancer” (King Abdulaziz University, priority 2019, dated 2022)

Test system: HCT-116 cells
Assay: ROS accumulation by DCFDA staining
Assay type: cell-based, human
Conditions: 24 and 48 h, compared to untreated cells
Protocol: The elevation of oxidative stress inside cancer cells, consequent to treatment with 4112, was investigated via monitoring ROS release over time (24 and 48 h). In this test, the 2′,7′-dichlorofluorescin diacetate (DCFDA) dye was used to detect various ROS species and emit green fluorescence.
To determine the effect of the newly synthesized compounds on the cellular redox status, two different free radical sensitive probe dichlorofluorescin diacetate (DCFDA) was used. Cells were cultured on sterile 22 mm^2 cover slips (Harvard Apparatus, MA, USA) in sterile six well plates at a density of 2×10^5 cells/well. […] At the end of the exposure, cells attached to cover slips were washed thrice with PBS and incubated with DCFDA 10 μM for 30 min at 37° C. in the dark. Thereafter, cells were washed thrice with PBS and the cover slips were then mounted on a glass slide with anti-fade mounting medium containing 4′,6′-diamidino-2-phenylindole, dihydrochloride (DAPI) (Sigma-Aldrich, St. Louis, Mo., USA), which was used as counter stain and viewed with an epifluorescence microscope, Leica, DM 5500 B (Leica, Buffalo Grove, Ill., USA) at a magnification of 60×. Data were captured digitally and quantified using the microscope provided software.

Structure (SMILES): CCCNC(=O)/C(=C/c1c[nH]c2ccccc12)NC(=O)/C=C/c1cccs1 [Compound 4112, (Z)-3-(1H-indol-3-yl)-N-propyl-2-[(E)-3-(thien-2-yl)acrylamidolacry]amide]
- accumulation of ROS: causes accumulation of ROS
